According to PMC3401595 (Bioorganic & medicinal chemistry, 2012):

Assays:
δ opioid receptor = δ opioid receptor (Homo sapiens, UniProt P41143); assay: biochemical; type: binding
[1] = systemic administration; greater than I; cited from earlier work
[2] = higher than I; cited from earlier work
[3] = higher than I; cited from earlier work; remark: listed apart in the source

Sequence of δ opioid receptor (P41143 whole entry): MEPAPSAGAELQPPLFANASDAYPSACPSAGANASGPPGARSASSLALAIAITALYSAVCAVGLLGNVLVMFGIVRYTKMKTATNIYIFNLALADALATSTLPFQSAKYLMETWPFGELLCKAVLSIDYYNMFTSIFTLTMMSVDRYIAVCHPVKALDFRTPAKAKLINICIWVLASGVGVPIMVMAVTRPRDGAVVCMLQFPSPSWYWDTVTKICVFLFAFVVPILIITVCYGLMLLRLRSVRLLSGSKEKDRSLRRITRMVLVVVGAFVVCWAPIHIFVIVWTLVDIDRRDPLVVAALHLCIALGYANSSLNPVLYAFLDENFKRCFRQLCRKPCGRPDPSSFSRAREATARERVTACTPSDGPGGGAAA

SMILES	Ki (δ opioid receptor) [µM]	other results
CCCCN(CCCC)CCOC/C=C/c1ccccc1 [Compound 17, 2-(Cinnamyloxy)-N,N-dibutylethanamine]	> 10	
CCCCN(CCCC)CCOCCCc1ccccc1 [Compound 18, N,N-dibutyl-2-(3-phenylpropoxy)ethanamine]	> 10	
CN(CCOC/C=C/c1ccccc1)Cc1ccccc1 [Compound 33, N-benzyl-2-(cinnamyloxy)-N-methylethanamine]	> 10	
CN(CCOCCCc1ccccc1)Cc1ccccc1 [Compound 34, N-benzyl-N-methyl-2-(3-phenylpropoxy)ethanamine]	> 10	
CN(CCCc1ccccc1)CCOC/C=C/c1ccccc1 [Compound 37, 2-(Cinnamyloxy)-N-methyl-N-phenylpropylethanamine]	> 10	
CO[C@@]12CCC(=O)[C@]3(C)Oc4c(O)ccc5c4[C@@]31CCN(C)[C@@H]2C5 [II, 14-methoxymetopon]		systemic antinociceptive potency relative to I (morphine) [1]: 500 fold
CN1CCC23c4c5ccc(O)c4OC2(C)C(=O)CCC3(OCCCc2ccccc2)C1C5 (centres unmarked) [III, 14-phenylpropyloxymetopon]		potency in the hot plate assay as compared to I (morphine) [2]: 8500 fold; potency in the tail flick assay as compared to I (morphine) [3]: 24000 fold
